The experiment concerns MV-4-11 cells. The experiment is described as follows: Gene expression microarray analysis (Affymetrix PrimeView) and GSEA. Format: cell-based, human. Also on record: RFU PODN (11730768_x_at) / Fold change /veh PODN (11730768_x_at) / RFU LINC00158 (11744669_a_at) / Fold change /veh LINC00158 (11744669_a_at) / RFU DUSP10 (11751237_a_at) / Fold change /veh DUSP10 (11751237_a_at) / RFU ID3 (11757404_x_at) / Fold change /veh ID3 (11757404_x_at) / RFU PLEKHG5 (11737974_s_at) / Fold change /veh PLEKHG5 (11737974_s_at) / RFU LRRC4B (11730491_at) / Fold change /veh LRRC4B (11730491_at) / RFU GIMAP4 (11747438_a_at) / Fold change /veh GIMAP4 (11747438_a_at) / RFU KRT8 (11758183_x_at) / Fold change /veh KRT8 (11758183_x_at) / RFU CNN1 (11734310_a_at) / Fold change /veh CNN1 (11734310_a_at) / RFU VPS37D (11726825_at) / Fold change /veh VPS37D (11726825_at) / RFU C10orf10 (11716522_x_at) / Fold change /veh C10orf10 (11716522_x_at) / RFU KIR2DL2 /// KIR2DL4 /// KIR2DL5A /// KIR2DL5B /// KIR2DS1 /// KIR2DS2 /// KIR2DS3 /// KIR2DS4 /// KIR3DL3 /// KIR3DL3 /// KIR3DS1 (11738374_at) / Fold change /veh KIR2DL2 /// KIR2DL4 /// KIR2DL5A /// KIR2DL5B /// KIR2DS1 /// KIR2DS2 /// KIR2DS3 /// KIR2DS4 /// KIR3DL3 /// KIR3DL3 /// KIR3DS1 (11738374_at) / RFU C1QL1 (11718748_at) / Fold change /veh C1QL1 (11718748_at) / RFU TMPRSS4 (11747572_a_at) / Fold change /veh TMPRSS4 (11747572_a_at) / RFU HAMP (11756126_x_at) / Fold change /veh HAMP (11756126_x_at) / RFU RNFT2 (11725882_a_at) / Fold change /veh RNFT2 (11725882_a_at) / RFU NR4A2 (11747474_a_at) / Fold change /veh NR4A2 (11747474_a_at) / RFU ABCC12 (11746883_a_at) / Fold change /veh ABCC12 (11746883_a_at) / RFU TMEM136 (11760407_x_at) / Fold change /veh TMEM136 (11760407_x_at) / RFU CLDN22 /// WWC2 (11732394_at) / Fold change /veh CLDN22 /// WWC2 (11732394_at) / RFU HLA-DPB1 (11760878_x_at) / Fold change /veh HLA-DPB1 (11760878_x_at) / RFU SPINT1 (11716480_a_at) / Fold change /veh SPINT1 (11716480_a_at) / RFU GAP43 (11754022_s_at) / Fold change /veh GAP43 (11754022_s_at) / RFU A4GNT (11735810_at) / Fold change /veh A4GNT (11735810_at) / RFU PRB3 (11715151_x_at) / Fold change /veh PRB3 (11715151_x_at) / RFU TUBB4B (11761932_at) / Fold change /veh TUBB4B (11761932_at) / RFU CAPN14 (11732068_a_at) / Fold change /veh CAPN14 (11732068_a_at) / RFU TMCC2 (11721928_a_at) / Fold change /veh TMCC2 (11721928_a_at) / RFU IRGQ (11745062_a_at) / Fold change /veh IRGQ (11745062_a_at) / RFU FAM174B (11720279_a_at) / Fold change /veh FAM174B (11720279_a_at) / RFU TMPRSS4 (11748680_a_at) / Fold change /veh TMPRSS4 (11748680_a_at) / RFU FAM212B (11763350_a_at) / Fold change /veh FAM212B (11763350_a_at) / RFU PLEKHG5 (11743358_a_at) / Fold change /veh PLEKHG5 (11743358_a_at) / RFU ZSCAN30 (11745921_a_at) / Fold change /veh ZSCAN30 (11745921_a_at) / RFU CMKLR1 (11741424_a_at) / Fold change /veh CMKLR1 (11741424_a_at) / RFU LOC101060620 /// MAPK8IP1 (11723275_at) / Fold change /veh LOC101060620 /// MAPK8IP1 (11723275_at) / RFU SPTSSB (11747773_x_at) / Fold change /veh SPTSSB (11747773_x_at) / RFU PRSS12 (11739890_at) / Fold change /veh PRSS12 (11739890_at) / RFU BIN1 (11741810_x_at) / Fold change /veh BIN1 (11741810_x_at) / RFU WNT11 (11732464_a_at) / Fold change /veh WNT11 (11732464_a_at) / RFU C10orf10 (11716521_a_at) / Fold change /veh C10orf10 (11716521_a_at) / RFU C5orf56 (11738089_at) / Fold change /veh C5orf56 (11738089_at) / RFU CYB561 (11721691_x_at) / Fold change /veh CYB561 (11721691_x_at) / RFU ANKRD19P (11752326_a_at) / Fold change /veh ANKRD19P (11752326_a_at) / RFU OR2T12 /// OR2T33 /// OR2T8 (11738714_s_at) / Fold change /veh OR2T12 /// OR2T33 /// OR2T8 (11738714_s_at) / RFU VCAN (11748164_a_at) / Fold change /veh VCAN (11748164_a_at) / RFU JSRP1 (11732532_at) / Fold change /veh JSRP1 (11732532_at) / RFU KRTAP10-11 (11738290_x_at) / Fold change /veh KRTAP10-11 (11738290_x_at) / RFU MYO3A (11730013_a_at) / Fold change /veh MYO3A (11730013_a_at) / RFU EBF3 (11725865_a_at) / Fold change /veh EBF3 (11725865_a_at) / RFU CAMK2N1 (11719241_x_at) / Fold change /veh CAMK2N1 (11719241_x_at) / RFU C5orf56 (11738088_a_at) / Fold change /veh C5orf56 (11738088_a_at) / RFU OLFML3 (11715873_a_at) / Fold change /veh OLFML3 (11715873_a_at) / RFU LOC100653217 /// NTM (11731650_a_at) / Fold change /veh LOC100653217 /// NTM (11731650_a_at) / RFU MAPK11 (11762145_a_at) / Fold change /veh MAPK11 (11762145_a_at) / RFU FIZ1 (11724087_x_at) / Fold change /veh FIZ1 (11724087_x_at) / RFU OASL (11726364_x_at) / Fold change /veh OASL (11726364_x_at) / RFU SOX15 (11748057_x_at) / Fold change /veh SOX15 (11748057_x_at) / RFU CD79A (11719716_a_at) / Fold change /veh CD79A (11719716_a_at) / RFU HIST1H1D (11736915_at) / Fold change /veh HIST1H1D (11736915_at) / RFU CASKIN2 (11723855_a_at) / Fold change /veh CASKIN2 (11723855_a_at) / RFU LOC730098 (11760151_x_at) / Fold change /veh LOC730098 (11760151_x_at) / RFU OR4N2 (11742367_at) / Fold change /veh OR4N2 (11742367_at) / RFU PRRT2 (11749266_a_at) / Fold change /veh PRRT2 (11749266_a_at) / RFU SNX32 (11753110_a_at) / Fold change /veh SNX32 (11753110_a_at) / RFU CDHR5 (11726645_a_at) / Fold change /veh CDHR5 (11726645_a_at) / RFU RCAN1 (11760418_a_at) / Fold change /veh RCAN1 (11760418_a_at) / RFU FAM167A (11723789_a_at) / Fold change /veh FAM167A (11723789_a_at) / RFU FAM26E (11764081_at) / Fold change /veh FAM26E (11764081_at) / RFU ISYNA1 (11749810_s_at) / Fold change /veh ISYNA1 (11749810_s_at) / RFU ACY1 (11761880_at) / Fold change /veh ACY1 (11761880_at) / RFU 11764098_at / Fold change /veh 11764098_at / RFU SAMD14 (11745864_x_at) / Fold change /veh SAMD14 (11745864_x_at) / RFU NPB (11741838_a_at) / Fold change /veh NPB (11741838_a_at) / RFU TMPRSS6 (11731388_a_at) / Fold change /veh TMPRSS6 (11731388_a_at) / RFU KRTAP10-2 (11738614_at) / Fold change /veh KRTAP10-2 (11738614_at) / RFU ARHGAP8 /// PRR5-ARHGAP8 (11727945_x_at) / Fold change /veh ARHGAP8 /// PRR5-ARHGAP8 (11727945_x_at) / RFU KRTAP5-7 /// NADSYN1 (11734609_at) / Fold change /veh KRTAP5-7 /// NADSYN1 (11734609_at) / RFU RASL12 (11751679_a_at) / Fold change /veh RASL12 (11751679_a_at) / RFU CDKN2B (11736163_a_at) / Fold change /veh CDKN2B (11736163_a_at) / RFU PRF1 (11729649_at) / Fold change /veh PRF1 (11729649_at) / RFU, ZNF638 /// ZNF638-IT1 / Fold change vs veh, ZNF638 /// ZNF638-IT1 / RFU, PANK3 / Fold change vs veh, PANK3 / RFU, SH3YL1 / Fold change vs veh, SH3YL1 / RFU, ZEB2 / Fold change vs veh, ZEB2 / RFU, NRIP1 / Fold change vs veh, NRIP1 / RFU, PTTG1IP / Fold change vs veh, PTTG1IP / RFU, CAPN2 / Fold change vs veh, CAPN2 / RFU, MED14 / Fold change vs veh, MED14 / RFU, SNORA58 / Fold change vs veh, SNORA58 / RFU, C1orf63 / Fold change vs veh, C1orf63 / RFU, LRRFIP1 / Fold change vs veh, LRRFIP1 / RFU, NDUFAF7 / Fold change vs veh, NDUFAF7 / RFU, SLC12A2 / Fold change vs veh, SLC12A2 / RFU, IBTK / Fold change vs veh, IBTK / RFU, ESF1 / Fold change vs veh, ESF1 / Fold change vs veh, TMEM50B / RFU, TAOK1 / Fold change vs veh, TAOK1 / RFU, ACBD3 / Fold change vs veh, ACBD3 / RFU, TMA16 / Fold change vs veh, TMA16 / RFU, RWDD3 / Fold change vs veh, RWDD3 / RFU, BCAT1 / Fold change vs veh, BCAT1 / RFU, EDEM3 / Fold change vs veh, EDEM3 / RFU, TMEM33 / Fold change vs veh, TMEM33 / RFU, WDR75 / Fold change vs veh, WDR75 / RFU, AHCTF1 / Fold change vs veh, AHCTF1 / RFU, TFRC / Fold change vs veh, TFRC / RFU, ZDHHC17 / Fold change vs veh, ZDHHC17 / RFU, NOM1 / Fold change vs veh, NOM1 / RFU, ARL8B / Fold change vs veh, ARL8B / RFU, ZBTB11 / Fold change vs veh, ZBTB11 / RFU, TAMM41 / Fold change vs veh, TAMM41 / RFU, KIAA1704 /// LOC100996395 / Fold change vs veh, KIAA1704 /// LOC100996395 / RFU, ING1 / Fold change vs veh, ING1 / RFU, TRMT61B / Fold change vs veh, TRMT61B / RFU, FUBP3 / Fold change vs veh, FUBP3 / RFU, TP53 / Fold change vs veh, TP53 / RFU, TNKS2 / Fold change vs veh, TNKS2 / RFU, ZFP14 / Fold change vs veh, ZFP14 / RFU, ACTR2 / Fold change vs veh, ACTR2 / RFU, PPP3R1 / Fold change vs veh, PPP3R1 / RFU, PIK3R1 / Fold change vs veh, PIK3R1 / RFU, HNRNPA1 / Fold change vs veh, HNRNPA1 / RFU, RNF170 / Fold change vs veh, RNF170 / RFU, ZNF28 / Fold change vs veh, ZNF28 / RFU, RNGTT / Fold change vs veh, RNGTT / RFU, OGT / Fold change vs veh, OGT / RFU, BRD1 / Fold change vs veh, BRD1 / RFU, MARS / Fold change vs veh, MARS / RFU, ZNF655 / Fold change vs veh, ZNF655 / RFU, FAHD1 / Fold change vs veh, FAHD1 / RFU, BDP1 / Fold change vs veh, BDP1 / RFU, LRRCC1 / Fold change vs veh, LRRCC1 / RFU, ARID1A / Fold change vs veh, ARID1A / RFU, ZNF146 / Fold change vs veh, ZNF146 / RFU, ZNF330 / Fold change vs veh, ZNF330 / RFU, GPN3 / Fold change vs veh, GPN3 / RFU, C9orf123 / Fold change vs veh, C9orf123 / RFU, N4BP2L2 / Fold change vs veh, N4BP2L2 / RFU, ARFIP1 / Fold change vs veh, ARFIP1 / RFU, FAM179B / Fold change vs veh, FAM179B / RFU, BCL10 / Fold change vs veh, BCL10 / RFU, UHRF1BP1L / Fold change vs veh, UHRF1BP1L / RFU, BET1 / Fold change vs veh, BET1 / RFU, CNOT2 / Fold change vs veh, CNOT2 / RFU, ZNF268 / Fold change vs veh, ZNF268 / Fold change vs veh, ZNF507 / RFU, DGCR2 / Fold change vs veh, DGCR2 / RFU, WDSUB1 / Fold change vs veh, WDSUB1 / Fold change vs veh, HSP90B1 /// MIR3652 / RFU, ADSS / Fold change vs veh, ADSS / RFU, GK / Fold change vs veh, GK / RFU, ZNF148 / Fold change vs veh, ZNF148 / RFU, TAF9 / Fold change vs veh, TAF9 / RFU, SLC1A5 / Fold change vs veh, SLC1A5 / RFU, SLMO2 / Fold change vs veh, SLMO2 / RFU, ABCC4 / Fold change vs veh, ABCC4 / RFU, LOC101060439 /// RAP1B / Fold change vs veh, LOC101060439 /// RAP1B / RFU, RFX7 / Fold change vs veh, RFX7 / RFU, GTPBP10 / Fold change vs veh, GTPBP10 / RFU, CNEP1R1 / Fold change vs veh, CNEP1R1 / RFU, BIVM-ERCC5 /// ERCC5 / Fold change vs veh, BIVM-ERCC5 /// ERCC5 / RFU, ILF3 / Fold change vs veh, ILF3 / RFU 11762660_at / Fold change /veh 11762660_at / RFU VCAN (11757783_s_at) / Fold change /veh VCAN (11757783_s_at) / RFU DDX43 (11728927_at) / Fold change /veh DDX43 (11728927_at) / RFU KRT8 (11758188_x_at) / Fold change /veh KRT8 (11758188_x_at) / RFU NKD1 (11759106_at) / Fold change /veh NKD1 (11759106_at) / RFU SRD5A1 (11742802_a_at) / Fold change /veh SRD5A1 (11742802_a_at) / RFU TPSAB1 /// TPSB2 (11721975_s_at) / Fold change /veh TPSAB1 /// TPSB2 (11721975_s_at) / RFU GSTM3 (11746129_a_at) / Fold change /veh GSTM3 (11746129_a_at) / RFU IL23R (11737362_x_at) / Fold change /veh IL23R (11737362_x_at) / RFU TMEM51 (11727254_a_at) / Fold change /veh TMEM51 (11727254_a_at) / RFU PIWIL2 (11732686_x_at) / Fold change /veh PIWIL2 (11732686_x_at) / RFU ORM1 (11744905_x_at) / Fold change /veh ORM1 (11744905_x_at) / RFU CCDC152 (11743942_at) / Fold change /veh CCDC152 (11743942_at) / RFU ECM1 (11717891_a_at) / Fold change /veh ECM1 (11717891_a_at) / RFU IL23R (11748794_a_at) / Fold change /veh IL23R (11748794_a_at) / RFU TNFAIP8L3 (11732012_x_at) / Fold change /veh TNFAIP8L3 (11732012_x_at) / RFU MBOAT4 (11741988_at) / Fold change /veh MBOAT4 (11741988_at) / RFU 11764193_at / Fold change /veh 11764193_at / RFU TMEM53 (11763286_at) / Fold change /veh TMEM53 (11763286_at) / RFU MAGEB2 (11727129_at) / Fold change /veh MAGEB2 (11727129_at) / RFU TMEM200A (11744735_a_at) / Fold change /veh TMEM200A (11744735_a_at) / RFU CCDC152 (11751479_a_at) / Fold change /veh CCDC152 (11751479_a_at) / RFU FAM211A (11726209_a_at) / Fold change /veh FAM211A (11726209_a_at) / RFU RGS16 (11746705_a_at) / Fold change /veh RGS16 (11746705_a_at) / RFU VCAN (11755009_s_at) / Fold change /veh VCAN (11755009_s_at) / RFU RHOB (11743442_s_at) / Fold change /veh RHOB (11743442_s_at) / RFU RGS16 (11720943_a_at) / Fold change /veh RGS16 (11720943_a_at) / RFU RGS16 (11720944_at) / Fold change /veh RGS16 (11720944_at) / RFU, VPS4B / Fold change vs veh, VPS4B / RFU, CREB1 / Fold change vs veh, CREB1 / RFU, DNAJC13 / Fold change vs veh, DNAJC13 / RFU, GNAQ / Fold change vs veh, GNAQ / RFU, CDK5R1 / Fold change vs veh, CDK5R1 / RFU, ZRANB3 / Fold change vs veh, ZRANB3 / RFU, CUL4A / Fold change vs veh, CUL4A / RFU, CCNY / Fold change vs veh, CCNY / RFU, UFL1 / Fold change vs veh, UFL1 / RFU, COG3 / Fold change vs veh, COG3 / RFU, DIAPH2 / Fold change vs veh, DIAPH2 / RFU, SKA2 / Fold change vs veh, SKA2 / RFU, AFF3 / Fold change vs veh, AFF3 / RFU, LMF1 / Fold change vs veh, LMF1 / RFU, IPO11 / Fold change vs veh, IPO11 / RFU, DFFB / Fold change vs veh, DFFB / RFU, FOXP1 / Fold change vs veh, FOXP1 / RFU, CARD8 / Fold change vs veh, CARD8 / RFU, STRN3 / Fold change vs veh, STRN3 / RFU, ADK / Fold change vs veh, ADK / RFU, RASSF2 / Fold change vs veh, RASSF2 / RFU, WIPF1 / Fold change vs veh, WIPF1 / RFU, LARP1B / Fold change vs veh, LARP1B / RFU, RASA1 / Fold change vs veh, RASA1 / RFU, RB1 / Fold change vs veh, RB1 / RFU, PPFIA1 / Fold change vs veh, PPFIA1 / RFU, MAT2A / Fold change vs veh, MAT2A / RFU, CCT5 / Fold change vs veh, CCT5 / RFU, WDR92 / Fold change vs veh, WDR92 / RFU, CUX1 / Fold change vs veh, CUX1 / RFU, TTC7A / Fold change vs veh, TTC7A / RFU, TMEM135 / Fold change vs veh, TMEM135 / RFU, DEPTOR / Fold change vs veh, DEPTOR / RFU, CPM / Fold change vs veh, CPM / RFU, DNAJB6 / Fold change vs veh, DNAJB6 / RFU, CACNA2D3 / Fold change vs veh, CACNA2D3 / RFU, DTX4 / Fold change vs veh, DTX4 / RFU, TFCP2 / Fold change vs veh, TFCP2 / RFU, GMCL1 /// GMCL1P1 / Fold change vs veh, GMCL1 /// GMCL1P1 / RFU, AEBP2 / Fold change vs veh, AEBP2 / RFU, SNHG1 /// SNORD22 /// SNORD25 /// SNORD26 /// SNORD27 /// SNORD28 /// SNORD29 /// SNORD31 / Fold change vs veh, SNHG1 /// SNORD22 /// SNORD25 /// SNORD26 /// SNORD27 /// SNORD28 /// SNORD29 /// SNORD31 / Fold change (Aza/veh), C12orf56 (ProbeSet 11735607_a_at) / Fold change (ACY-1035/veh), C12orf56 (ProbeSet 11735607_a_at) / Fold change (Aza/veh), FGFR1OP (ProbeSet 11751329_s_at) / Fold change (ACY-1035/veh), FGFR1OP (ProbeSet 11751329_s_at) / Fold change (Aza/veh), VPS36 (ProbeSet 11739960_a_at) / Fold change (ACY-1035/veh), VPS36 (ProbeSet 11739960_a_at) / RFU SYPL1 (11715823_x_at) / Fold change /veh SYPL1 (11715823_x_at) / RFU IGFBP7 (11715501_s_at) / Fold change /veh IGFBP7 (11715501_s_at) / RFU REEP3 (11722064_at) / Fold change /veh REEP3 (11722064_at) / RFU IGLL1 (11728026_x_at) / Fold change /veh IGLL1 (11728026_x_at): dose or concentration left out as unconfirmed. To be noted: MV-4-11 cells, 48 hours.

Data on one compound can be found in article PMC5218480 (PLoS ONE, 2017).

Regarding `Nc1ccc(-c2cccs2)cc1NC(=O)c1ccc2c(c1)cc(C1CC1)n2CCN1CCOCC1` [ACY-1035], the “RFU TNFAIP8L3 (11732012_x_at)” value was 8.37 RFU.
